# How the values were obtained:
# [1] = tested on: Listeria monocytogenes (ATCC 35152); experiment: Disc diffusion assay; format: cell-based; details: for Inhibition zones of isolated acetogenins (in words): isolated molecules at 15 μg disc^−1, 37° C., 24 h; for Potency relative to Mirenat® in disc diffusion: 15 μg disc^−1 vs Mirenat® at 15 μg disc^−1 LAE
# Method: Listeria monocytogenes (ATCC 35152) was acquired from the American Type Culture Collection (Manassas, Va., USA). For experimentation, frozen stocks were first activated in Brain Heart Infusion (BHI) broth (Becton, Dickinson and Co., Franklin Lakes, N.J., USA) for 16-18 h at 37° C. A sub-culture was prepared under the same growth conditions to 3⁄4 log phase (6-7 h). At this stage, cells were adjusted with BHI to an initial optical density (OD) at 600 nm of 0.15, which corresponded to 8×10^6 CFU mL^-1 and served as the inoculum for the following antimicrobial assays. Aliquots (100 μL) of the cell suspension described above were evenly spread with a sterile plastic rod on the surface of agar plates. Sterile filter paper disks (Whatman No. 1, 6 mm) were impregnated with aliquots (5 μL) of the antimicrobial solution (EAE, Avosafe® and isolated acetogenins) freshly prepared at 3000 ppm in 96% food grade ethanol to delivered 15 μg disc^-1 of active compounds. All solutions were sonicated for 5 min (Branson 2510, Branson Ultrasonics, Danbury, Conn., USA) and vortexed for 30 s before dispensing the corresponding volumes. The disks were air-dried for approximately 1 h in a biological safety cabinet before placed into the inoculated plate. Antimicrobials were tested in triplicate, one disk per plate to account for plate variability. Vehicle and positive controls were also incorporated into each plate and contemplated 5 μl of 96% ethanol and […]® at 3000 ppm LAE in sterile deionized water. Each plate contained at most six disks evenly distributed. Plates were incubated for 24 h at 37° C. After, diameters of inhibition zones were measured to the nearest millimeter.
# [2] = tested on: Listeria monocytogenes (ATCC 35152); experiment: Minimum inhibitory concentration (MIC) and minimum bactericidal concentration (MBC), broth dilution; format: cell-based; details: 37° C.; for MBC/MIC ratio: ≤4 bactericidal, >4 bacteriostatic; for MBC / MIC: Listeria monocytogenes, ATCC35152, 24 h
# Method: Listeria monocytogenes (ATCC 35152) was acquired from the American Type Culture Collection (Manassas, Va., USA). For experimentation, frozen stocks were first activated in Brain Heart Infusion (BHI) broth (Becton, Dickinson and Co., Franklin Lakes, N.J., USA) for 16-18 h at 37° C. A sub-culture was prepared under the same growth conditions to ¾ log phase (6-7 h). At this stage, cells were adjusted with BHI to an initial optical density (OD) at 600 nm of 0.15, which corresponded to 8×10^6 CFU mL^−1 and served as the inoculum for the following antimicrobial assays.
# Stock solutions (25000-5000 ppm) of EAE, Avosafe® and isolated molecules were prepared in ≥99.5% food-grade propylene glycol (PG) (Sigma Aldrich, St. Louis, Mo., USA) and stored in brown vials at −80° C. Working solutions in culture media were prepared from room temperature acclimatized stock solutions that were sonicated (5 min) and vortexed (30 s) as described above. Culture medium was adjusted to 4% w/v PG to account for the effect of the vehicle in all concentrations tested and sets of experiments. Prior tests were conducted to confirm that 4% PG had no effect on growth. Serial 2-fold dilutions of samples, in a range of concentrations from 125 to 0.98 ppm, were prepared in sterile 96-well clear polystyrene microplates (Cat. No. 3370, Corning, Corning, N.Y., USA) or disposable test tubes (VWR, Radnor, Pa., USA) to a final volume of 300 μL or 1 mL, respectively. The experimentation scale was determined by the amount of test product available. Each well or tube was inoculated with 10% v/v liquid phase of the cell suspension (OD600 nm 0.15) as previously described. A growth control (no antimicrobial added), an aseptic control (uninoculated), and a positive control (Mirenat®) were also examined. After 24 h at 37° C., the MIC was defined as the lowest concentration at which no visual growth was assessed by turbidity (Levison, M. E., “Pharmacodynamics of Antimicrobial Drugs,” Infect. Dis. Clin. North. Am. 18(3):451-65 (2004), which is hereby incorporated by reference in its entirety). […] Then, the pellet was resuspended in antimicrobial-free medium and incubated for 24 h at 37° C. The MBC was defined as the lowest concentration showing no growth (Levison, M. E., “Pharmacodynamics of Antimicrobial Drugs,” Infect. Dis. Clin. North. Am. 18(3):451-65 (2004), which is hereby incorporated by reference in its entirety). All tests were independently replicated (n=3) and performed with technical triplicates.
# [3] = Effect of thermal processing and storage on acetogenins concentration in sausages; format: physicochemical; details: sausages with 10,000 ppm Avosafe®, cooking and pasteurization
# Text: Effect of thermal processing and storage on acetogenins concentration. Acetogenins in sausages (Treatment A: un-cooked, day 0 and 90) were extracted and quantified as reported by Salinas-Salazar et al, “Inhibitory Activity of Avocado Seed Fatty Acid Derivatives (Acetogenins) Against Listeria Monocytogenes” J Food Sci 82: 134-44 (2016), which is hereby incorporated by reference in its entirety, with some modifications. Three grams (3 g) of sample were homogenized with acetone (1:5, w/v) using an Ultra-Turrax T25 homogenizer (IKA Works, Willmington, N.C., USA.) at 11000 rpm for 3 min, sonicated for 5 min, and centrifuged at 3600 rpm for 6 min (5° C.). Supernatants were collected and the precipitated material was extracted again two times, as mentioned above. After, supernatants were mixed and the solvent was evaporated at 35° C. using a rotary evaporator (Büchi R-210, Büchi Labortechnik AG, Switzerland) under high vacuum (22 in Hg). Residue was partitioned in 10 mL hexane:methanol (1:1). After 30 s of vortex, phases were separated by centrifugation (4000 rpm, 10 min) and the lower phase (methanol) was recovered and washed two more times with hexane, taken to dryness under nitrogen gas, resuspended in 1 mL isopropanol and passed through a 0.45 μm PTFE filter prior to HPLC injection. Agilent HPLC systems (Santa Clara, Calif., USA) 1260 Infinity series coupled to a G4212B photodiode array detector (PDA) and an evaporative light scattering detector G4218A was used. The PDA detector was set at 220 and 208 nm (Rodríguez-López, “A Targeted Metabolomics Approach to Characterize Acetogenin Profiles in Avocado Fruit (Persea americana Mill.)” RSC Adv 5: 106019-29 (2015), which is hereby incorporated by reference in its entirety).
# [4] = dose of 100 mg kg^−1 of body weight; cited from earlier work
# [5] = tested on: C. sporogenes; details: cited from earlier work
# [6] = lactating mice; cited from earlier work
smiles,measurement,setting,value
"C#CCC/C=C/CCCCCCC[C@H](O)CC(O)COC(C)=O (stereo in doubt) [AcO-avocadenyne, 1-acetoxy-2,4-dihydroxy-heptadec-12-en-16-yne]",Antimicrobial activity relative to AcO-avocadene,"[1]; 15 μg disc^−1, FIG. 4",4 times
same,MBC/MIC ratio,[2],2
same,MBC,[2],31.2 µg/mL
same,MIC,[2],15.6 µg/mL
"C=CCCCCCCCCCCC[C@H](O)C[C@H](O)COC(C)=O [AcO-avocadene, (2S,4S)-1-acetoxy-2,4-dihydroxy-n-heptadeca-16-ene]",Processing losses compared to unprocessed control (in words),[3],no statistically significant
same,Inhibition zones of isolated acetogenins (in words),[1],least potent
"C=CCCCCCCCCCC=CC(O)CC(O)COC(C)=O (stereo not drawn) [AcO-avocadiene A, 1-Acetoxy-2,4-dihydroxy-heptadeca-5,16-diene]",Processing losses compared to unprocessed control (in words),[3],no statistically significant
same,Inhibition zones of isolated acetogenins (in words),[1],did not produce inhibition zones
"C#CCCCCCCCCCCCC(O)CC(O)COC(C)=O (stereo not drawn) [AcO-avocadyne, 1-acetoxy-2,4-dihydroxy-heptadec-16-yne]",Inhibition zones of isolated acetogenins (in words),[1],did not produce inhibition zones
"CCCCC/C=C\C/C=C\CCCCC/C=C/C(=O)C[C@@H](O)COC(C)=O [Persenone A, (2R,5E,12Z,15Z)-1-acetoxy-2-hydroxy-4-oxoheneicosa-5,12,15-triene]",Processing losses compared to unprocessed control (in words),[3],no statistically significant
same,Potency relative to Mirenat® in disc diffusion,[1],around 3 fold
same,Inhibition zones of isolated acetogenins (in words),[1],highest inhibition zones
same,MBC/MIC ratio,[2],2
same,MBC,[2],15.6 µg/mL
same,MIC,[2],7.8 µg/mL
"CCCCCCCCCCCCC/C=C/C(=O)C[C@@H](O)COC(C)=O [Persenone B, (5E)-1-acetoxy-2-hydroxy-4-oxononadeca-5-ene]",Processing losses compared to unprocessed control (in words),[3],no statistically significant
"CC/C=C/CCCCCCCCC/C=C/C(=O)C[C@@H](O)COC(C)=O [Persenone C, (2R,5E,16E)-1-acetoxy-2-hydroxy-4-oxononadeca-5,16-diene]",Potency relative to Mirenat® in disc diffusion,[1],around 3 fold
same,Inhibition zones of isolated acetogenins (in words),[1],highest inhibition zones
"CCCCC/C=C\C/C=C\CCCCCCCC(=O)C[C@@H](O)COC(C)=O [Persin, (2R,12Z,15Z)-1-acetoxy-2-hydroxy-4-oxoheneicosa-12,15-diene]",Effect in liver injury (in words),[4],protective effect
same,Antimicrobial activity against C. sporogenes (in words),[5],minimal
same,Toxic acute doses,[6],60-100 mg kg^−1 body weight

# From patent US10932484B2, “Inhibitory activity of acetogenins against Listeria monocytogenes” (INSTITUTO TECHNOLOGICO Y DE ESTUDIOS SUPERIORES DE MONTERREY, priority 2016, dated 2021)
